Source: article doi:10.1101/2024.09.20.614104v2, “SATAY-Based Chemogenomic Screening uncovers Antifungal Resistance Mechanisms and Key Determinants of ATI-2307 and Chitosan Sensitivity” (biorxiv, 2024)

Experiments:
Hol1 = target: T1, Hol1 (Saccharomyces cerevisiae, UniProt P53389); assay: LC-MS quantification of cellular uptake, wild-type versus hol1 deletion cells; format: cell-based; settings: SC 2% ethanol, 30 °C, not an affinity constant
T1 construct: full-length native plasma membrane polyamine transporter in wild-type yeast; hol1 deletion strain as control

CaHOL1 = target: T2, CaHOL1 (Candida albicans, UniProt Q5AP74); assay: LC-MS quantification of cellular uptake, hol1 deletion cells with or without CaHOL1 plasmid; format: cell-based; settings: 0.003 μg/mL ATI-2307, 2 h, SC -URA 2% ethanol, 30 °C
T2 construct: gene HOL1; full-length CDS PCR-amplified from genomic DNA, expressed from plasmid pBK994 in S. cerevisiae hol1 deletion strain
T2 sequence (Q5AP74 entry or part of it): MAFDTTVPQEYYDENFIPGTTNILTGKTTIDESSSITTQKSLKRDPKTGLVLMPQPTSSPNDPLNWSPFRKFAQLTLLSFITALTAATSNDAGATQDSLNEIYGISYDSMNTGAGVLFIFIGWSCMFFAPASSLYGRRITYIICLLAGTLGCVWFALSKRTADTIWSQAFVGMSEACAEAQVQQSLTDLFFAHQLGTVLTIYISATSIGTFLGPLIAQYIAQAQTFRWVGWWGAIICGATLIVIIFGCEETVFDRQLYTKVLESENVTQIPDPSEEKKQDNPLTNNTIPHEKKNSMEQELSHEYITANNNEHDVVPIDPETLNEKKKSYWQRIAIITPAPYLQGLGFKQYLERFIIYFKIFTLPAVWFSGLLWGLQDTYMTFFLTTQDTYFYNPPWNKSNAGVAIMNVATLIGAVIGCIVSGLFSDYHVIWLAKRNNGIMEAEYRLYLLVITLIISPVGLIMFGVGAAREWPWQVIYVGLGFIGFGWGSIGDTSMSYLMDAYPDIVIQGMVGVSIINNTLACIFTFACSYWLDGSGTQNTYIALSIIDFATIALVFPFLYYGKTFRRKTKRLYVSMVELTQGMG

T1 sequence (P53389 whole entry): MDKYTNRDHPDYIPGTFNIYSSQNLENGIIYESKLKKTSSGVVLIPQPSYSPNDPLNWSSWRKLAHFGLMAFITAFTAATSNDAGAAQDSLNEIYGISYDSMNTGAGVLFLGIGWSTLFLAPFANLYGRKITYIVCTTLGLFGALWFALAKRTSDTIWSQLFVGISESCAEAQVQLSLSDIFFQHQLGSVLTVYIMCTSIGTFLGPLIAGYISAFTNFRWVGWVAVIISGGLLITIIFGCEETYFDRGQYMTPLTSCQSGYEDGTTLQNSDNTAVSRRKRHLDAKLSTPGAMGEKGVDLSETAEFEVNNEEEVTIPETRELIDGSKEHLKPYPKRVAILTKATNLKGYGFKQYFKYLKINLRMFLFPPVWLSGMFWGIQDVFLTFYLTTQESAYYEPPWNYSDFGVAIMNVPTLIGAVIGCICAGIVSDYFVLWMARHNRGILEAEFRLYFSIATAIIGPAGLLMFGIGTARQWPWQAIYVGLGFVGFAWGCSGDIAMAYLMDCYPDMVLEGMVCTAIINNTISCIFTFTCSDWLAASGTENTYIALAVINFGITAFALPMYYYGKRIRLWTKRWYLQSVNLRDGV

Compound | uptake, μg per gram of WT pellet (Hol1; 0.003 μg/mL ATI-2307, 2 h) | LC-MS quantification of cellular uptake, hol1 deletion cells with or without CaH (CaHOL1) | uptake, μg per gram of WT pellet (Hol1; 1 μg/mL Iminoctadine, 2 h)
N=C(N)c1ccc(OCCCC2CCN(CCCOc3ccc(C(=N)N)cc3)CC2)cc1 [ATI-2307] | 0.1 μg/g pellet | heterologous expression of C. albicans HOL1 (CaHOL1) partially restored ATI-2307 uptake | –
N=C(N)NCCCCCCCCNCCCCCCCCNC(=N)N [Iminoctadine] | – | – | 52.5 μg/g pellet
